Consider 15 compounds from patent publication US20060199803A1, “Compounds” (Kudos Pharmaceuticals Ltd, priority 2005, published 2006).

Bounds are passed on as bounds.

This assay deals with T1, mTOR protein (Homo sapiens, UniProt P42345).
T1 construct: mTOR protein was isolated from HeLa cell cytoplasmic extract by immunoprecipitation; endogenous in cells; host or cells: HeLa cell cytoplasmic extract (immunoprecipitation)
Put plainly: mTOR enzyme activity assay (immunoprecipitated mTOR, recombinant PHAS-1 as substrate). It counts as biochemical. Conditions: mTOR isolated from HeLa cell cytoplasmic extract by immunoprecipitation; recombinant PHAS-1 substrate.
Excerpt: For mTOR enzyme activity assays, mTOR protein was isolated from HeLa cell cytoplasmic extract by immunoprecipitation, and activity determined essentially as described previously using recombinant PHAS-1 as a substrate (ref. 21).
In general, IC50 refers to the concentration at which inhibition is half-maximal. Consider `C[C@H]1CCCCN1c1nc(N2CCCOCC2)c2cccnc2n1` [4ab], for which the IC50 was less than 1500 nM.

Take `C[C@@H]1CN(c2nc(N3CCOC[C@@H]3C)c3cccnc3n2)C[C@H](C)O1` [4af]: the IC50 was less than 1500 nM.

On to `C[C@H]1COCCN1c1nc(N2CCOC(c3ccccc3)C2)nc2ncccc12` (stereo partly drawn) [4ag], for which the IC50 was less than 1500 nM.

As to `C[C@H]1COCCN1c1nc(N2CCOCC2c2ccccc2)nc2ncccc12` (stereo partly drawn) [4ah], the IC50 was less than 1500 nM.

In the case of `C[C@@H]1CN(c2nc(N3CCOCC3)c3cccnc3n2)C[C@H](C)O1` [4c], the half-inhibitory concentration (IC50) was less than 1500 nM.

Regarding `NC(=O)C1CCN(c2nc(N3CCOCC3)c3ccncc3n2)CC1` [4d], the IC50 was less than 1500 nM.

`FC(F)(F)C1CCCN(c2nc(N3CCOCC3)c3cccnc3n2)C1` (stereo not drawn) [4h]: the IC50 is less than 1500 nM.

With `CCC1CCCCN1c1nc(N2CCOCC2)c2cccnc2n1` (stereo not drawn) [4n], the IC50 was less than 1500 nM.

In the case of `OCCC1CCCCN1c1nc(N2CCOCC2)c2cccnc2n1` (stereo not drawn) [4o], the IC50 was less than 1500 nM.

Regarding `c1cnc2nc(N3CCCCC3)nc(N3CCOCC3)c2c1` [4y], the IC50 was less than 1500 nM.

With `C[C@H]1COCCN1c1nc(N2CCOC(CN3C(=O)c4cccc(N)c4C3=O)C2)nc2ncccc12` (stereo partly drawn) [5g], the IC50 was less than 1500 nM.

`C[C@H]1COCCN1c1nc(N2CCOC(Cn3c(=O)oc4ccccc43)C2)nc2ncccc12` (stereo partly drawn) [5h]: the IC50 was less than 1500 nM.

`C[C@H]1COCCN1c1nc(N2CCOC(CNC(=O)c3cccs3)C2)nc2ncccc12` (stereo partly drawn) [5k]: the IC50 is less than 1500 nM.

Consider `COC(=O)C(=O)NCC1CN(c2nc(N3CCOC[C@@H]3C)c3cccnc3n2)CCO1` (stereo partly drawn) [5m], for which the IC50 is less than 1500 nM.

In the case of `C[C@H]1COCCN1c1nc(N2CCOC(COc3nccc4ccccc34)C2)nc2ncccc12` (stereo partly drawn) [5z], the IC50 was less than 1500 nM.
